Literature values, collected in EP0775491A1, “IMMUNOPOTENTIATOR” (TAYCA CORPORATION, priority 1995, dated 1997).
Like-named read-outs stand apart in the source and are kept apart here.

Conditions: oral administration to rats

| Structure (SMILES) | LD50 | LD50 (female) | LD50 (male) |
| --- | --- | --- | --- |
| COC(COC(N)=O)C1=C(N2CC2)C(=O)C(C)=C(N2CC2)C1=O (stereo not shown) [Carboquone] | 27.3 mg/kg | – | – |
| O=P1(N(CCCl)CCCl)NCCCO1 (stereo not shown) [Cyclophosphide] | – | 118 mg/kg | 100 mg/kg |
| O=c1[nH]cc(F)c(=O)[nH]1 [Fluorouracil] | 781 mg/kg | – | – |
